{"source": "patent US20230107770A1", "about": "“METHOD OF ENHANCING IMMUNOTHERAPY USING ER STRESS PATHWAY INHIBITORS” (H. LEE MOFFITT CANCER CENTER AND RESEARCH INSTITUTE, INC., priority 2020, published 2023)", "key": {"human FSH-CER T cells": {"system": "human FSH-CER T cells", "test": "Expansion of IL-2-supplemented human FSH-CER T cells with ER stress inhibitors", "format": "cell-based", "conditions": "treatment for 5 days", "procedure": "The role of the PERK-Chop in the expansion of tumor TRM cells using conditional T cell Chop-null mice was evaluated. In agreement with the inhibitory effect of Chop in TRM development, higher frequency of TRM cells was detected in tumors from T cell-Chop^KO mice compared to controls (FIG. 23A). Next, we tested the effect of the inhibition of PERK (AMG-44) and IRE 1α (MKC8866) during the expansion of IL-2-supplemented human FSH-CER T cells. […] Also, we evaluated the therapeutic effect of the combination of ER stress-targeting therapy and FSH-CER. Thus, mice bearing FSHR+-ID8-Defb29/Vegfa ovarian tumors for 7 days received daily treatments with MKC8866 (i.p., 300 mg/kg) or AMG-44 (i.p. 12 mg/kg) for one-week, and i.p. transfer of FSH-CER T cells at days 7 and 14 post-tumor challenge. […] We postulate that treatments for longer time periods with ER stress inhibitors will further potentiate the effect of FSH-CER T cells"}, "[1]": {"system": "IRE1α-generated Xbp1s mRNA", "test": "Xbp1s mRNA in peritoneal leukocytes of ID8-Defb29/Vegfa-bearing mice", "format": "in vivo", "conditions": "MKC8866 300 mg/kg; leukocytes isolated 12 h later", "source_text": "(§1) FIGS. 19A, 19B, 19C, 19D, 19E, and 19F show Inhibition of IRE1α-XBP1 blunts tumor growth and activates effector T cell activity in tumors. […] Pictures denote the content of hemorrhagic ascites. […] FIGS. 19D, 19E, and 19F show the frequency of T cell populations in peritoneal tumors from ID8-Defb29/Vegfa-bearing mice treated with MKC8866 for two weeks. ***P<0.0001, **P<0.001 (Student's t-test). N=two repeats with a total of 8-10 mice per group.\n(§2) We optimized a therapeutic scheme wherein female mice bearing orthotropic ID8-Defb29/Vegfa tumors for 7 days were treated daily for two weeks with vehicle or MKC8866, a novel small-molecule inhibitor that selectively blocks the RNase domain of IRE1α, impeding the generation of XBP1s."}, "[2]": {"system": "FSHR+-ID8-Defb29/Vegfa ovarian tumors", "test": "ER stress-targeting therapy combined with FSH-CER T cells in ovarian tumor-bearing mice", "format": "in vivo", "conditions": "MKC8866 i.p. 300 mg/kg or AMG-44 i.p. 12 mg/kg daily for one week; FSH-CER T cells days 7 and 14", "procedure": "The role of the PERK-Chop in the expansion of tumor TRM cells using conditional T cell Chop-null mice was evaluated. In agreement with the inhibitory effect of Chop in TRM development, higher frequency of TRM cells was detected in tumors from T cell-Chop^KO mice compared to controls (FIG. 23A). Next, we tested the effect of the inhibition of PERK (AMG-44) and IRE 1α (MKC8866) during the expansion of IL-2-supplemented human FSH-CER T cells. […] Also, we evaluated the therapeutic effect of the combination of ER stress-targeting therapy and FSH-CER. […]\nActivation of the UPR in cancer cells mediates adaptation processes in the TME, whereas UPR priming in tumor-myeloid cells promotes their immunoregulatory activity. […] As main readouts of therapeutic efficacy, we will monitor tumor burden, overall survival, and tumor CER-T cell infiltration, persistence, and cytotoxic capacity (Exp. C.2.1.1). […] Additionally, we will sort DCs and MDSC from tumor sites and lymphoid organs to quantify the expression of ER stress gene markers, their ability to impair T cell proliferation and IFNγ production, and the levels of the UPR-related immunoinhibitory factors IL-6, PGE2, Cox-2, mPGES-1, and Arginase I. All required methods are established by our groups. […]"}, "ID8-Defb29/Vegfa tumors": {"system": "ID8-Defb29/Vegfa tumors", "test": "Orthotopic ID8-Defb29/Vegfa ovarian tumor model treated with MKC8866", "format": "in vivo, mice", "source_text": "as §1, §2"}}, "note": "Entries after “also recorded” stand apart in the source; their conditions may differ."}
{"compound": "COc1cc2c(C)c(CC(=O)N3CCOCC3)c(=O)oc2c(C=O)c1O", "note": "[MKC8866]", "values": [{"measurement": "frequency of FSH-CER TRM cells", "setting": "human FSH-CER T cells", "value": "Higher frequency of FSH-CER TRM cells"}, {"measurement": "levels of IRE1α-generated Xbp1s mRNA in peritoneal leukocytes", "setting": "[1]", "value": "rapidly and significantly decreased"}, {"measurement": "survival of hosts receiving FSH-CER T cells plus inhibitor", "setting": "[2]", "value": "Prolonged survival"}, {"measurement": "PD-1 in intra-tumoral CD8+ T cells", "setting": "ID8-Defb29/Vegfa tumors; MKC8866-treated mice vs vehicle", "value": "upregulation of PD-1; also recorded: substantial elevation of the immune checkpoint PD-1"}, {"measurement": "generation of hemorrhagic ascites", "setting": "ID8-Defb29/Vegfa tumors; MKC8866 daily for two weeks vs vehicle", "value": "impaired generation of hemorrhagic ascites"}, {"measurement": "malignant progression", "setting": "ID8-Defb29/Vegfa tumors; MKC8866 daily for two weeks vs vehicle, weight gain", "value": "delayed malignant progression"}, {"measurement": "capacity of intra-tumoral CD8+ T cells to produce IFNγ and TNFα in situ", "setting": "ID8-Defb29/Vegfa tumors; MKC8866 for two weeks", "value": "augmenting their capacity to produce both IFNγ and TNFα in situ"}, {"measurement": "proportion of proliferating (Ki67+) antigen-experienced (CD44+) CD8+ T cells infiltrating tumors", "setting": "ID8-Defb29/Vegfa tumors; MKC8866 for two weeks", "value": "increased the proportion"}]}
